pIC50: −log10 of the molar value.
Molecular target: ROCK2 (Homo sapiens (Human), UniProt O75116);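 note: rho kinase enzyme reaction halted with EDTA, phospho- and non-phospho peptide separated for read-out, kinase activity inhibition derived across a dose-response series, DMSO under 2%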
Settings: not given

ROCK2, sequence (O75116 whole entry, species assumed): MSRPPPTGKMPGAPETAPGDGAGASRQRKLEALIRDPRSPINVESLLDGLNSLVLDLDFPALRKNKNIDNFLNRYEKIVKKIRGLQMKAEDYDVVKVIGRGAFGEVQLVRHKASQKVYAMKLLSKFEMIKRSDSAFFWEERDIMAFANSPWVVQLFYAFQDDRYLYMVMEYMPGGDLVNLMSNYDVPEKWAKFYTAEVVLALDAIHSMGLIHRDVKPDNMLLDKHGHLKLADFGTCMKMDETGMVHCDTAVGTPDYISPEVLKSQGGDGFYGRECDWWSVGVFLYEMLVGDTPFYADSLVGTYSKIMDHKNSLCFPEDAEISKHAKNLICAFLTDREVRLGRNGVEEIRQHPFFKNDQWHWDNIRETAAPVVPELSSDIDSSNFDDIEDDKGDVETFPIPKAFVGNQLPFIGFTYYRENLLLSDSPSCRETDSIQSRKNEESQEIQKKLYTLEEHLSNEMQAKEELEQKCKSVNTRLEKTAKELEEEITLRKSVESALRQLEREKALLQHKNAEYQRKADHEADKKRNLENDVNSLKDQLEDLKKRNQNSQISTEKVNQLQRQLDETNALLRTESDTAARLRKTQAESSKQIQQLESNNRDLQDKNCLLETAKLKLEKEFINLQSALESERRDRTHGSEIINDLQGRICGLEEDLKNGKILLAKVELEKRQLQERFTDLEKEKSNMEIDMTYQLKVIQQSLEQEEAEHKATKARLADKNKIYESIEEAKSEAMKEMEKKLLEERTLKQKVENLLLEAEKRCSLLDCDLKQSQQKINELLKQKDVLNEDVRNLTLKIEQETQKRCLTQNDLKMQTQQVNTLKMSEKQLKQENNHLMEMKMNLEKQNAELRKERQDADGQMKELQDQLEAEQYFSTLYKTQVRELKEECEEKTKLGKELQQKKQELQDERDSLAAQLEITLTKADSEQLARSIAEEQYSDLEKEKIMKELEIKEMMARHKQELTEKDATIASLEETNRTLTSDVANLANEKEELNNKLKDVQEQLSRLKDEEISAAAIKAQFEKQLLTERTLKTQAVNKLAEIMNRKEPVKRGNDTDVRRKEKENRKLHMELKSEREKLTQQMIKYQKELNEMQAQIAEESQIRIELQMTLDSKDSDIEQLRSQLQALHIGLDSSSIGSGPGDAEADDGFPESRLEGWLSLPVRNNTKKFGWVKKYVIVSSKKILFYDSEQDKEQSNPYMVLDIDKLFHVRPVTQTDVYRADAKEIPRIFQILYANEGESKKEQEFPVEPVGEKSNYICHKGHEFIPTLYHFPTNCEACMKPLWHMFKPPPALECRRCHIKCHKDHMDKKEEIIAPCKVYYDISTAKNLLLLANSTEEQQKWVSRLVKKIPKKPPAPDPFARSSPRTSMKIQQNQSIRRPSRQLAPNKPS

Row | Structure (SMILES) | pIC50
1 | COc1cc(NC2CCN(c3ccc(-c4cn[nH]c4)c(F)c3F)C2=O)ccc1F (single isomer, unassigned) [Example 308, 1-(2,3-difluoro-4-(1H-pyrazol-4-yl)phenyl)-3-((4-fluoro-3-methoxyphenyl)amino)pyrrolidin-2-one] | 7.00 to 8.00
2 | COc1cccc(NC2CCN(c3cc(F)c(-c4cn[nH]c4)c(F)c3)C2=O)c1 (single isomer, unassigned) [Example 312, 1-(3,5-difluoro-4-(1H-pyrazol-4-yl)phenyl)-3-((3-methoxyphenyl)amino)pyrrolidin-2-one] | > 8.00
3 | CCc1nc(N2CCC(Nc3cccc(OC)c3)C2=O)ccc1-c1cn[nH]c1 (single isomer, unassigned) [Example 314, 1-(6-ethyl-5-(1H-pyrazol-4-yl)pyridin-2-yl)-3-((3-methoxyphenyl)amino) pyrrolidin-2-one] | > 8.00
4 | COc1cccc(NC2CCN(c3ccc(-c4cn[nH]c4)cc3)C2=O)c1C (single isomer, unassigned) [Example 326, 1-(4-(1H-pyrazol-4-yl)phenyl)-3-((3-methoxy-2-methylphenyl)amino) pyrrolidin-2-one] | 7.00 to 8.00
5 | COc1ccc(F)c(NC2CCN(c3ccc(-c4cn[nH]c4)c(F)c3)C2=O)c1 (single isomer, unassigned) [Example 335, 1-(3-fluoro-4-(1H-pyrazol-4-yl)phenyl)-3-((2-fluoro-5-methoxyphenyl)amino) pyrrolidin-2-one] | 7.00 to 8.00
6 | COc1ccc(NC2CCN(c3ccc(-c4cn[nH]c4)cc3F)C2=O)cc1F (single isomer, unassigned) [Example 345, 1-(2-fluoro-4-(1H-pyrazol-4-yl)phenyl)-3-((3-fluoro-4-methoxyphenyl)amino) pyrrolidin-2-one] | 5.66 to 7.00
7 | COc1cc(NC2CCN(c3ccc(-c4cn[nH]c4)c(C(F)(F)F)c3)C2=O)ccc1F (single isomer, unassigned) [Example 372, 1-(4-(1H-pyrazol-4-yl)-3-(trifluoromethyl)phenyl)-3-((4-fluoro-3-methoxyphenyl)amino)pyrrolidin-2-one] | 5.66 to 7.00
8 | COc1ccc(N[C@@H]2CCN(c3ccc(-c4cn[nH]c4)cc3)C2=O)c(OC)c1 [Example 395, (R)-1-(4-(1H-pyrazol-4-yl)phenyl)-3-((2,4-dimethoxyphenyl)amino)pyrrolidin-2-one] | 5.66 to 7.00

Other lines, results leading:

Row | pIC50 | Structure (SMILES)
9 | 7.00 to 8.00 | COc1cccc(NC2CCN(c3ccc(-c4cn[nH]c4)cc3F)C2=O)c1 (single isomer, unassigned) [Example 329, 1-(2-fluoro-4-(1H-pyrazol-4-yl)phenyl)-3-((3-methoxyphenyl)amino)pyrrolidin-2-one]
10 | 7.00 to 8.00 | COc1cc(NC2CCN(c3ccc(-c4cn[nH]c4)cc3F)C2=O)ccc1F (single isomer, unassigned) [Example 331, 3-((4-fluoro-3-methoxyphenyl)amino)-1-(2-fluoro-4-(1H-pyrazol-4-yl)phenyl) pyrrolidin-2-one]
11 | > 8.00 | COc1cc(NC2CCN(c3ccc(-c4cn[nH]c4)c(F)c3)C2=O)ccc1F (single isomer, unassigned) [Example 333, 3-((4-fluoro-3-methoxyphenyl)amino)-1-(3-fluoro-4-(1H-pyrazol-4-yl)phenyl) pyrrolidin-2-one]
12 | 7.00 to 8.00 | COc1cc(F)cc(NC2CCN(c3ccc(-c4cn[nH]c4)cc3F)C2=O)c1 (single isomer, unassigned) [Example 339, 1-(2-fluoro-4-(1H-pyrazol-4-yl)phenyl)-3-((3-fluoro-5-methoxyphenyl)amino) pyrrolidin-2-one]
13 | 5.66 to 7.00 | COc1c(F)cccc1NC1CCN(c2ccc(-c3cn[nH]c3)cc2F)C1=O (single isomer, unassigned) [Example 343, 3-((3-fluoro-2-methoxyphenyl)amino)-1-(2-fluoro-4-(1H-pyrazol-4-yl)phenyl) pyrrolidin-2-one]
14 | 7.00 to 8.00 | COc1cccc(NC2CCN(c3cc(F)c(-c4cn[nH]c4)cc3F)C2=O)c1 (single isomer, unassigned) [Example 354, 1-(2,5-difluoro-4-(1H-pyrazol-4-yl)phenyl)-3-((3-methoxyphenyl)amino)pyrrolidin-2-one]
15 | 7.00 to 8.00 | O=C1C(Nc2cccc(OC(F)F)c2)CCN1c1ccc(-c2cn[nH]c2)c(F)c1 (single isomer, unassigned) [Example 356, 3-((3-(difluoromethoxy)phenyl)amino)-1-(3-fluoro-4-(1H-pyrazol-4-yl)phenyl) pyrrolidin-2-one]
16 | 5.66 to 7.00 | COc1cccc(NC2CCN(c3ncc(-c4cn[nH]c4)cc3F)C2=O)c1 (single isomer, unassigned) [Example 358, 1-(3-fluoro-5-(1H-pyrazol-4-yl)pyridin-2-yl)-3-((3-methoxyphenyl)amino) pyrrolidin-2-one]
17 | 5.66 to 7.00 | COc1cc(F)cc(NC2CCN(c3ncc(-c4cn[nH]c4)cc3F)C2=O)c1 (single isomer, unassigned) [Example 360, 1-(3-fluoro-5-(1H-pyrazol-4-yl)pyridin-2-yl)-3-((3-fluoro-5-methoxyphenyl)amino) pyrrolidin-2-one]
18 | 5.66 to 7.00 | COc1cccc(NC2CCN(c3ccc(-c4cn[nH]c4)c(C(F)(F)F)c3)C2=O)c1 (single isomer, unassigned) [Example 368, 1-(4-(1H-pyrazol-4-yl)-3-(trifluoromethyl)phenyl)-3-((3-methoxyphenyl)amino) pyrrolidin-2-one]
19 | 5.66 to 7.00 | COc1cc(NC2CCN(c3ccc(-c4cn[nH]c4)c(C#N)c3)C2=O)ccc1F (single isomer, unassigned) [Example 380, 5-(3-((4-fluoro-3-methoxyphenyl)amino)-2-oxopyrrolidin-1-yl)-2-(1H-pyrazol-4-yl)benzonitrile]

Test system: spontaneously hypertensive rat, renal hypertensive rat and deoxycortisone acetate salt hypertensive rat models
Settings: control rats; cited from earlier work

Row | Structure (SMILES) | blood pressure
20 | C[C@@H](N)[C@H]1CC[C@H](C(=O)Nc2ccncc2)CC1 [Example Y-27632] | only a minor effect on blood pressure

Same assay, conditions: three rat models of hypertension; cited from earlier work

Row | Structure (SMILES) | blood pressure
21 | C[C@@H](N)[C@H]1CC[C@H](C(=O)Nc2ccncc2)CC1 [Example Y-27632] | significantly decrease blood pressure

Test system: neointimal formation in rats
Settings: cited from earlier work

Row | Structure (SMILES) | neointimal formation
22 | C[C@@H](N)[C@H]1CC[C@H](C(=O)Nc2ccncc2)CC1 [Example Y-27632] | inhibited neointimal formation

Test system: porcine model of IL-1 beta-induced coronary stenosis
Settings: long term treatment; cited from earlier work

Row | Structure (SMILES) | coronary constrictive remodeling | coronary stenosis
23 | O=S(=O)(c1cccc2cnccc12)N1CCCNCC1 [fasudil] | promote a regression of coronary constrictive remodeling | progressively reduce coronary stenosis

Test system: rat stroke model
Settings: in vivo; cited from earlier work

Row | Structure (SMILES) | infarct size and neurologic deficit
24 | O=S(=O)(c1cccc2cnccc12)N1CCCNCC1 [fasudil] | reduce both the infarct size and neurologic deficit

Test system: Dahl salt-sensitive rats
Settings: rat, in vivo; cited from earlier work

Row | Structure (SMILES) | ventricular hypertrophy, fibrosis and function
25 | C[C@@H](N)[C@H]1CC[C@H](C(=O)Nc2ccncc2)CC1 [Example Y-27632] | improve ventricular hypertrophy, fibrosis and function
